# Test results as given in patent publication US11666608B2 (priority 2020, dated 2023).
# Test system: neutrophils isolated from peripheral blood
# Test: Neutrophil activation by E. coli EVs, neutrophil elastase secretion (ELISA)
# Format: cell-based
# Settings: human neutrophils treated with E. coli EVs and test substance 24 hours, FIG. 8
# Procedure: Specifically, 10 mL of blood was collected in a tube containing an ACD solution, the blood was carefully added over 20 mL of Lymphoprep and centrifuged. After centrifugation, a red blood layer was collected and mixed with 12 mL of dextran, followed by standing at room temperature for 45 minutes. After layer separation, 40 mL of 1×HBSS was added to the supernatant and centrifuged again, and red blood cells were removed with autoclaved Millipore water, and then neutrophils were isolated using a neutrophil isolation kit (MACS). […] As a positive control drug, dexamethasone (Dex) was treated.
smiles,measurement,value
C[C@@H]1C[C@H]2[C@@H]3CCC4=CC(=O)C=C[C@]4(C)[C@@]3(F)[C@@H](O)C[C@]2(C)[C@@]1(O)C(=O)CO [dexamethasone],"secretion of NE (neutrophil elastase), neutrophil activation indicator",did not inhibit
